Test results from patent US20240358693A1, “METHODS OF TREATING PAIN” (Aisa Pharma, Inc., priority 2023, published 2024).

Test system: participants with SSc-RP
Assay: Frequency of weekly RP attacks (all attacks; primary efficacy endpoint)
Format: in vivo, human
Conditions: for Weekly RP Attacks, Q3 / Weekly RP Attacks Change from Baseline, Max / Weekly RP Attacks Change from Baseline, Mean / Weekly RP Attacks Change from Baseline, Median / Weekly RP Attacks Change from Baseline, Min / Weekly RP Attacks Change from Baseline, Q1 / Weekly RP Attacks Change from Baseline, Q3 / Weekly RP Attacks Percent Change from Baseline, Max / Weekly RP Attacks Percent Change from Baseline, Mean / Weekly RP Attacks Percent Change from Baseline, Median / Weekly RP Attacks Percent Change from Baseline, Min / Weekly RP Attacks Percent Change from Baseline, Q1 / Weekly RP Attacks Percent Change from Baseline, Q3 / Weekly RP Attacks, Max / Weekly RP Attacks, Mean / Weekly RP Attacks, Median / Weekly RP Attacks, Min / Weekly RP Attacks, Q1 / Weekly RP Attacks Change from Baseline, Mean (SD) / Weekly RP Attacks Percent Change from Baseline, Mean (SD) / Weekly RP Attacks, Mean (SD): all attacks, tadalafil 5 mg daily
Text: Percent change from baseline evaluation for frequency of weekly RP attacks were or will be used as the primary efficacy variable. The sponsor-developed participant-informed diary will be used to record data. Frequency of weekly RP attacks is defined as the total number of RP attacks divided by the number of days with available diary data within the last 7 days of each dosing period then multiplied by 7. Total number of RP attacks during the last 7 days of screening period divided by the number of days with available data then multiplied by 7 will be used as baseline for the analysis of all periods. The variable will be calculated as follows:
Percentage change={(weekly RP attacks for the last 7 days of each dosing period−Baseline weekly RP attacks)/Baseline weekly RP attacks}*100%.
Absolute change=weekly RP attacks for the last 7 days of each dosing period−Baseline weekly RP attacks
Percent change from baseline evaluation for frequency of weekly RP attacks was and will be the primary efficacy endpoint. Frequency of weekly RP attacks is defined as the total number of RP attacks divided by the number of days with available diary data within the last 7 days of each dosing period then multiplied by 7. Total number of RP attacks during the last 7 days of screening period divided by the number of days with available data then multiplied by 7 will be used as baseline for the analysis of all periods.
Percent change from baseline evaluation for frequency of weekly RP attacks were the primary efficacy endpoint. Data collected in the last 7 days of each dosing period were used for this analysis. Screening assessments were used as baseline for the analysis of all periods. No multiple comparison adjustment were used to control alpha for the multiple comparisons. Mixed effects model were used for analysis of the primary endpoint according to the crossover design. Other efficacy endpoints of continuous variables were analyzed using similar methodology. For nominal data, chi-square tests were applied. Generalized Estimating Equations method were used, as appropriate, for adjusting for potential confounding factors. In addition, the final analysis assessed whether in this study of severe Raynaud's disease participants, the minimally important difference, previously concluded of 14-15 points on the 100 point RCS scale had been achieved in the cilnidipine dose group. It also recorded the percentage of participants achieving a PASS (34 point difference from baseline on a 0-100 VAS) in each treatment group.

[1] = by baseline RCS, first subgroup, cilnidipine 10 mg
[2] = by baseline RCS, first subgroup, cilnidipine 20 mg
[3] = by baseline RCS, first subgroup, pooled cilnidipine 10 mg and 20 mg
[4] = pooled cilnidipine 10 mg and 20 mg

COCCOC(=O)C1=C(C)NC(C)=C(C(=O)OC/C=C/c2ccccc2)C1c1cccc([N+](=O)[O-])c1 (stereo not shown) [Cilnidipine, cilnidipine]
Weekly RP Attacks, Q3 (excluding outliers, pooled cilnidipine 10 mg and 20 mg): 23.00 | Weekly RP Attacks Change from Baseline, Max [1]: −9.0, −9.0 | Weekly RP Attacks Change from Baseline, Mean [1]: −9.00 | Weekly RP Attacks Change from Baseline, Median [1]: −9.00 | Weekly RP Attacks Change from Baseline, Min [1]: −9.0, −9.0 | Weekly RP Attacks Change from Baseline, Q1 [1]: −9.00, −9.00 | Weekly RP Attacks Change from Baseline, Q3 [1]: −9.00, −9.00 | Weekly RP Attacks Percent Change from Baseline, Max [1]: −28.1, −28.1% | Weekly RP Attacks Percent Change from Baseline, Mean [1]: −28.13% | Weekly RP Attacks Percent Change from Baseline, Median [1]: −28.13% | Weekly RP Attacks Percent Change from Baseline, Min [1]: −28.1, −28.1% | Weekly RP Attacks Percent Change from Baseline, Q1 [1]: −28.13, −28.13% | Weekly RP Attacks Percent Change from Baseline, Q3 [1]: −28.13, −28.13% | Weekly RP Attacks, Max [1]: 23.0, 23.0 | Weekly RP Attacks, Mean [1]: 23.00 | Weekly RP Attacks, Median [1]: 23.00 | Weekly RP Attacks, Min [1]: 23.0, 23.0 | Weekly RP Attacks, Q1 [1]: 23.00, 23.00 | Weekly RP Attacks, Q3 [1]: 23.00, 23.00 | Weekly RP Attacks Change from Baseline, Max [2]: −4.3 | Weekly RP Attacks Change from Baseline, Mean [2]: −6.67 | Weekly RP Attacks Change from Baseline, Median [2]: −6.67 | Weekly RP Attacks Change from Baseline, Min [2]: −9.0 | Weekly RP Attacks Change from Baseline, Q1 [2]: −9.00 | Weekly RP Attacks Change from Baseline, Q3 [2]: −4.33 | Weekly RP Attacks Percent Change from Baseline, Max [2]: −45.0% | Weekly RP Attacks Percent Change from Baseline, Mean [2]: −45.71% | Weekly RP Attacks Percent Change from Baseline, Median [2]: −45.71% | Weekly RP Attacks Percent Change from Baseline, Min [2]: −46.4% | Weekly RP Attacks Percent Change from Baseline, Q1 [2]: −46.43% | Weekly RP Attacks Percent Change from Baseline, Q3 [2]: −45.00% | Weekly RP Attacks, Max [2]: 11.0 | Weekly RP Attacks, Mean [2]: 8.00 | Weekly RP Attacks, Median [2]: 8.00 | Weekly RP Attacks, Min [2]: 5.0 | Weekly RP Attacks, Q1 [2]: 5.00 | Weekly RP Attacks, Q3 [2]: 11.00 | Weekly RP Attacks Change from Baseline, Max [3]: −4.3 | Weekly RP Attacks Change from Baseline, Mean [3]: −7.44 | Weekly RP Attacks Change from Baseline, Median [3]: −9.00 | Weekly RP Attacks Change from Baseline, Min [3]: −9.0 | Weekly RP Attacks Change from Baseline, Q1 [3]: −9.00 | Weekly RP Attacks Change from Baseline, Q3 [3]: −4.33 | Weekly RP Attacks Percent Change from Baseline, Max [3]: −28.1% | Weekly RP Attacks Percent Change from Baseline, Mean [3]: −39.85% | Weekly RP Attacks Percent Change from Baseline, Median [3]: −45.00% | Weekly RP Attacks Percent Change from Baseline, Min [3]: −46.4% | Weekly RP Attacks Percent Change from Baseline, Q1 [3]: −46.43% | Weekly RP Attacks Percent Change from Baseline, Q3 [3]: −28.13% | Weekly RP Attacks, Max [3]: 23.0 | Weekly RP Attacks, Mean [3]: 13.00 | Weekly RP Attacks, Median [3]: 11.00 | Weekly RP Attacks, Min [3]: 5.0 | Weekly RP Attacks, Q1 [3]: 5.00 | Weekly RP Attacks, Q3 [3]: 23.00 | Weekly RP Attacks Change from Baseline, Max (cilnidipine 10 mg): −9.0, −9.0 | Weekly RP Attacks Change from Baseline, Mean (SD) (cilnidipine 10 mg): −9.00 | Weekly RP Attacks Change from Baseline, Median (cilnidipine 10 mg): −9.00 | Weekly RP Attacks Change from Baseline, Min (cilnidipine 10 mg): −9.0, −9.0 | Weekly RP Attacks Change from Baseline, Q1 (cilnidipine 10 mg): −9.00, −9.00 | Weekly RP Attacks Change from Baseline, Q3 (cilnidipine 10 mg): −9.00, −9.00 | Weekly RP Attacks Percent Change from Baseline, Max (cilnidipine 10 mg): −28.1, −28.1% | Weekly RP Attacks Percent Change from Baseline, Mean (SD) (cilnidipine 10 mg): −28.13% | Weekly RP Attacks Percent Change from Baseline, Median (cilnidipine 10 mg): −28.13% | Weekly RP Attacks Percent Change from Baseline, Min (cilnidipine 10 mg): −28.1, −28.1% | Weekly RP Attacks Percent Change from Baseline, Q1 (cilnidipine 10 mg): −28.13, −28.13% | Weekly RP Attacks Percent Change from Baseline, Q3 (cilnidipine 10 mg): −28.13, −28.13% | Weekly RP Attacks, Max (cilnidipine 10 mg): 23.0, 23.0 | Weekly RP Attacks, Mean (SD) (cilnidipine 10 mg): 23.00 | Weekly RP Attacks, Median (cilnidipine 10 mg): 23.00 | Weekly RP Attacks, Min (cilnidipine 10 mg): 23.0, 23.0 | Weekly RP Attacks, Q1 (cilnidipine 10 mg): 23.00, 23.00 | Weekly RP Attacks, Q3 (cilnidipine 10 mg): 23.00, 23.00 | Weekly RP Attacks Change from Baseline, Max (cilnidipine 20 mg): −4.3 | Weekly RP Attacks Change from Baseline, Mean (SD) (cilnidipine 20 mg): −6.67 (3.300) | Weekly RP Attacks Change from Baseline, Median (cilnidipine 20 mg): −6.67 | Weekly RP Attacks Change from Baseline, Min (cilnidipine 20 mg): −9.0 | Weekly RP Attacks Change from Baseline, Q1 (cilnidipine 20 mg): −9.00 | Weekly RP Attacks Change from Baseline, Q3 (cilnidipine 20 mg): −4.33 | Weekly RP Attacks Percent Change from Baseline, Max (cilnidipine 20 mg): −45.0% | Weekly RP Attacks Percent Change from Baseline, Mean (SD) (cilnidipine 20 mg): −45.71 (1.010) Percent | Weekly RP Attacks Percent Change from Baseline, Median (cilnidipine 20 mg): −45.71% | Weekly RP Attacks Percent Change from Baseline, Min (cilnidipine 20 mg): −46.4% | Weekly RP Attacks Percent Change from Baseline, Q1 (cilnidipine 20 mg): −46.43% | Weekly RP Attacks Percent Change from Baseline, Q3 (cilnidipine 20 mg): −45.00% | Weekly RP Attacks, Max (cilnidipine 20 mg): 11.0 | Weekly RP Attacks, Mean (SD) (cilnidipine 20 mg): 8.00 (4.243) | Weekly RP Attacks, Median (cilnidipine 20 mg): 8.00 | Weekly RP Attacks, Min (cilnidipine 20 mg): 5.0 | Weekly RP Attacks, Q1 (cilnidipine 20 mg): 5.00 | Weekly RP Attacks, Q3 (cilnidipine 20 mg): 11.00 | Weekly RP Attacks Change from Baseline, Max [4]: −4.3 | Weekly RP Attacks Change from Baseline, Mean (SD) [4]: −7.44 (2.694) | Weekly RP Attacks Change from Baseline, Median [4]: −9.00 | Weekly RP Attacks Change from Baseline, Min [4]: −9.0 | Weekly RP Attacks Change from Baseline, Q1 [4]: −9.00 | Weekly RP Attacks Change from Baseline, Q3 [4]: −4.33 | Weekly RP Attacks Percent Change from Baseline, Max [4]: −28.1% | Weekly RP Attacks Percent Change from Baseline, Mean (SD) [4]: −39.85 (10.180) Percent | Weekly RP Attacks Percent Change from Baseline, Median [4]: −45.00% | Weekly RP Attacks Percent Change from Baseline, Min [4]: −46.4% | Weekly RP Attacks Percent Change from Baseline, Q1 [4]: −46.43% | Weekly RP Attacks Percent Change from Baseline, Q3 [4]: −28.13% | Weekly RP Attacks, Max [4]: 23.0 | Weekly RP Attacks, Mean (SD) [4]: 13.00 (9.165) | Weekly RP Attacks, Median [4]: 11.00 | Weekly RP Attacks, Min [4]: 5.0 | Weekly RP Attacks, Q1 [4]: 5.00 | Weekly RP Attacks, Q3 [4]: 23.00 | reduction in weekly attack frequency (primary endpoint) (cilnidipine 20 mg, 19% with placebo): 43% | reduction in weekly attack frequency, typical attacks (pooled cilnidipine monotherapy or cilnidipine plus tadalafil treated patients (n=7)): −31 to −40% | Attacks reduced (summary of data (Table S)): 43%_vs 23% with
